Assay results published in ChEMBL document CHEMBL1201862, “PubChem BioAssay data set” (2004).
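1) Cells in 96-well plates. 2) Compound, 48 h, 5 concentrations. 3) Linear interpolation between surrounding doses. 4) Unreached endpoint = highest concentration. Here, GI50 denotes the concentration required for 50% inhibition of growth.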 Activity calls are given as the source filed them. No stated cut-off is given here; in the data, active = GI50 up to about 1.1 µM and inactive = higher.

Legend:
Experiment in all cases: NCI anticancer screen, dose series, 48 h
UACC-257 = system: UACC-257
SK-OV-3 = system: SK-OV-3
SW-620 = system: SW-620
UO-31 = system: UO-31
OVCAR-8 = system: OVCAR-8
COLO 205 = system: COLO 205
TK-10 = system: TK-10
HOP-62 = system: HOP-62
K562 = system: K562
T47D = system: T47D
KM12 = system: KM12
A549 = system: A549
NCI-H460 = system: NCI-H460
U-251 = system: U-251
HCT-116 = system: HCT-116
IGROV-1 = system: IGROV-1
RXF 393 = system: RXF 393
NCI/ADR-RES = system: NCI/ADR-RES
OVCAR-5 = system: OVCAR-5
HOP-92 = system: HOP-92

## O=C(Nc1cccc2ccccc12)c1ccccc1
UACC-257
  GI50: > 100 µM (inactive)
SK-OV-3
  GI50: > 100 µM (inactive)
SW-620
  GI50: 34.4 µM (inactive)
UO-31
  GI50: > 100 µM (inactive)
OVCAR-8
  GI50: > 100 µM (inactive)
COLO 205
  GI50: 97.7 µM (inactive)
TK-10
  GI50: > 100 µM (inactive)
HOP-62
  GI50: 81.3 µM (inactive)
K562
  GI50: 76.6 µM (inactive)
T47D
  GI50: 11.5 µM (inactive)
KM12
  GI50: > 100 µM (inactive)
A549
  GI50: > 100 µM (inactive)
NCI-H460
  GI50: > 100 µM (inactive)
U-251
  GI50: > 100 µM (inactive)
HCT-116
  GI50: > 100 µM (inactive)
IGROV-1
  GI50: > 100 µM (inactive)
RXF 393
  GI50: 26.7 µM (inactive)
NCI/ADR-RES
  GI50: > 100 µM (inactive)
OVCAR-5
  GI50: > 100 µM (inactive)

## OCC(O)C1OC2CC1Nc1ccccc1N2 (stereo unspecified)
UACC-257
  GI50: > 100 µM (inactive)
SK-OV-3
  GI50: > 100 µM (inactive)
SW-620
  GI50: > 100 µM (inactive)
UO-31
  GI50: > 100 µM (inactive)
OVCAR-8
  GI50: > 100 µM (inactive)
HOP-92
  GI50: > 100 µM (inactive)
COLO 205
  GI50: > 100 µM (inactive)
TK-10
  GI50: > 100 µM (inactive)
HOP-62
  GI50: > 100 µM (inactive)
K562
  GI50: > 100 µM (inactive)
T47D
  GI50: > 100 µM (inactive)
KM12
  GI50: > 100 µM (inactive)
A549
  GI50: > 100 µM (inactive)
NCI-H460
  GI50: > 100 µM (inactive)
U-251
  GI50: > 100 µM (inactive)
HCT-116
  GI50: > 100 µM (inactive)
IGROV-1
  GI50: > 100 µM (inactive)
NCI/ADR-RES
  GI50: > 100 µM (inactive)
OVCAR-5
  GI50: > 10 µM (inactive)

## CN1CCN(C2CC(=O)c3c(Cl)sc(Cl)c32)CC1 (stereo unspecified)
UACC-257
  GI50: 27.1 µM (inactive)
SK-OV-3
  GI50: > 54.6 µM (inactive)
SW-620
  GI50: 7.94 µM (inactive)
UO-31
  GI50: 7.6 µM (inactive)
OVCAR-8
  GI50: 7.66 µM (inactive)
HOP-92
  GI50: 10.4 µM (inactive)
COLO 205
  GI50: 20.7 µM (inactive)
TK-10
  GI50: 29 µM (inactive)
HOP-62
  GI50: 19 µM (inactive)
K562
  GI50: 4.06 µM (inactive)
T47D
  GI50: 18.5 µM (inactive)
KM12
  GI50: 10.8 µM (inactive)
A549
  GI50: 21.3 µM (inactive)
NCI-H460
  GI50: 30.6 µM (inactive)
U-251
  GI50: 11.3 µM (inactive)
HCT-116
  GI50: 6.92 µM (inactive)
IGROV-1
  GI50: 8.69 µM (inactive)
NCI/ADR-RES
  GI50: 16.4 µM (inactive)
OVCAR-5
  GI50: 27.7 µM (inactive)

## Cc1ccc(Cc2n[nH]c(=O)n2Nc2ccccc2)cc1
UACC-257
  GI50: > 100 µM (inactive)
SK-OV-3
  GI50: > 100 µM (inactive)
SW-620
  GI50: > 100 µM (inactive)
UO-31
  GI50: 68.2 µM (inactive)
OVCAR-8
  GI50: > 100 µM (inactive)
HOP-92
  GI50: 65.2 µM (inactive)
COLO 205
  GI50: > 100 µM (inactive)
TK-10
  GI50: > 100 µM (inactive)
HOP-62
  GI50: > 100 µM (inactive)
K562
  GI50: > 100 µM (inactive)
T47D
  GI50: 89.9 µM (inactive)
KM12
  GI50: > 100 µM (inactive)
A549
  GI50: > 100 µM (inactive)
NCI-H460
  GI50: > 100 µM (inactive)
U-251
  GI50: > 100 µM (inactive)
HCT-116
  GI50: > 100 µM (inactive)
IGROV-1
  GI50: > 100 µM (inactive)
NCI/ADR-RES
  GI50: > 100 µM (inactive)
OVCAR-5
  GI50: > 100 µM (inactive)

## CCOC(=O)C1C(c2ccccc2)C2(C#N)C(=N)OC1(C)C2(C#N)C#N (stereo unspecified)
UACC-257
  GI50: 20.5 µM (inactive)
SK-OV-3
  GI50: > 100 µM (inactive)
SW-620
  GI50: 44.8 µM (inactive)
UO-31
  GI50: 16.2 µM (inactive)
OVCAR-8
  GI50: 24.5 µM (inactive)
HOP-92
  GI50: 20 µM (inactive)
COLO 205
  GI50: 16.4 µM (inactive)
TK-10
  GI50: 26.2 µM (inactive)
K562
  GI50: 19.8 µM (inactive)
T47D
  GI50: 32.1 µM (inactive)
KM12
  GI50: > 10 µM (inactive)
A549
  GI50: > 100 µM (inactive)
U-251
  GI50: 28.7 µM (inactive)
HCT-116
  GI50: 16.3 µM (inactive)
IGROV-1
  GI50: 18.5 µM (inactive)
RXF 393
  GI50: 15.8 µM (inactive)
NCI/ADR-RES
  GI50: 27.1 µM (inactive)
OVCAR-5
  GI50: 21.7 µM (inactive)

## CN(C)C1(N(C)C)Oc2c(c(=O)n(C)c(=O)n2C)C(c2ccc(Br)cc2)C1(F)F (stereo unspecified)
UACC-257
  GI50: > 100 µM (inactive)
SK-OV-3
  GI50: > 100 µM (inactive)
SW-620
  GI50: > 100 µM (inactive)
UO-31
  GI50: > 100 µM (inactive)
HOP-92
  GI50: 82.4 µM (inactive)
COLO 205
  GI50: > 100 µM (inactive)
TK-10
  GI50: > 100 µM (inactive)
HOP-62
  GI50: > 100 µM (inactive)
T47D
  GI50: > 100 µM (inactive)
KM12
  GI50: > 100 µM (inactive)
A549
  GI50: > 100 µM (inactive)
NCI-H460
  GI50: > 100 µM (inactive)
U-251
  GI50: > 100 µM (inactive)
HCT-116
  GI50: > 100 µM (inactive)
RXF 393
  GI50: > 100 µM (inactive)
NCI/ADR-RES
  GI50: > 100 µM (inactive)
OVCAR-5
  GI50: > 100 µM (inactive)

## COc1c(-c2ccc(O)c(O)c2)oc2c(O)c(O)cc(O)c2c1=O
UACC-257
  GI50: > 100 µM (inactive)
SK-OV-3
  GI50: 85.9 µM (inactive)
SW-620
  GI50: 22.5 µM (inactive)
UO-31
  GI50: > 100 µM (inactive)
OVCAR-8
  GI50: > 100 µM (inactive)
HOP-92
  GI50: > 100 µM (inactive)
COLO 205
  GI50: > 100 µM (inactive)
TK-10
  GI50: > 100 µM (inactive)
HOP-62
  GI50: 26.7 µM (inactive)
K562
  GI50: 20.8 µM (inactive)
T47D
  GI50: 67 µM (inactive)
KM12
  GI50: 66.5 µM (inactive)
A549
  GI50: 69.2 µM (inactive)
NCI-H460
  GI50: 55.6 µM (inactive)
U-251
  GI50: 34.8 µM (inactive)
HCT-116
  GI50: 40.4 µM (inactive)
IGROV-1
  GI50: 24.7 µM (inactive)
NCI/ADR-RES
  GI50: > 100 µM (inactive)
OVCAR-5
  GI50: > 100 µM (inactive)

## O=C(O)CCC(NC(=O)c1ccc(Nc2nc3ccccc3nc2C(=O)O)cc1)C(=O)O (stereo unspecified)
UACC-257
  GI50: > 100 µM (inactive)
SK-OV-3
  GI50: > 100 µM (inactive)
UO-31
  GI50: > 100 µM (inactive)
OVCAR-8
  GI50: > 100 µM (inactive)
HOP-92
  GI50: > 100 µM (inactive)
COLO 205
  GI50: > 100 µM (inactive)
TK-10
  GI50: > 100 µM (inactive)
HOP-62
  GI50: > 100 µM (inactive)
K562
  GI50: > 100 µM (inactive)
T47D
  GI50: > 100 µM (inactive)
KM12
  GI50: > 100 µM (inactive)
A549
  GI50: > 100 µM (inactive)
U-251
  GI50: > 100 µM (inactive)
HCT-116
  GI50: > 100 µM (inactive)
IGROV-1
  GI50: > 100 µM (inactive)
NCI/ADR-RES
  GI50: > 100 µM (inactive)
OVCAR-5
  GI50: > 100 µM (inactive)

## C=C1CC(C)(c2cccc(Nc3nc4ccccc4c4occc34)c2)OC1=O (stereo unspecified)
UACC-257
  GI50: 0.0218 µM (active)
SK-OV-3
  GI50: 13.7 µM (inactive)
UO-31
  GI50: 1.89 µM (inactive)
OVCAR-8
  GI50: 6.08 µM (inactive)
HOP-92
  GI50: 1.44 µM (inactive)
COLO 205
  GI50: 4.38 µM (inactive)
TK-10
  GI50: 3.56 µM (inactive)
HOP-62
  GI50: 12.2 µM (inactive)
T47D
  GI50: 3.1 µM (inactive)
KM12
  GI50: 5.08 µM (inactive)
A549
  GI50: 3.92 µM (inactive)
NCI-H460
  GI50: 15.6 µM (inactive)
U-251
  GI50: 10 µM (inactive)
HCT-116
  GI50: 1.67 µM (inactive)
RXF 393
  GI50: 2.36 µM (inactive)
NCI/ADR-RES
  GI50: 8 µM (inactive)
OVCAR-5
  GI50: 14.3 µM (inactive)

## CCCCNc1nc(NC2OCC(OC(C)=O)C(OC(C)=O)C2OC(C)=O)c(N=O)c(=O)n1C (stereo unspecified)
UACC-257
  GI50: > 10 µM (inactive)
SK-OV-3
  GI50: > 10 µM (inactive)
SW-620
  GI50: > 10 µM (inactive)
OVCAR-8
  GI50: > 10 µM (inactive)
HOP-92
  GI50: > 10 µM (inactive)
COLO 205
  GI50: > 10 µM (inactive)
TK-10
  GI50: > 10 µM (inactive)
HOP-62
  GI50: > 10 µM (inactive)
T47D
  GI50: > 10 µM (inactive)
KM12
  GI50: > 10 µM (inactive)
A549
  GI50: > 10 µM (inactive)
NCI-H460
  GI50: > 10 µM (inactive)
U-251
  GI50: > 10 µM (inactive)
HCT-116
  GI50: > 10 µM (inactive)
IGROV-1
  GI50: > 10 µM (inactive)
RXF 393
  GI50: > 10 µM (inactive)
NCI/ADR-RES
  GI50: > 10 µM (inactive)
OVCAR-5
  GI50: > 10 µM (inactive)

## CC(C)(Sc1cc(C(C)(C)C)c(O)c(C(C)(C)C)c1)Sc1cc(C(C)(C)C)c(O)c(C(C)(C)C)c1 [PROBUCOL]
UACC-257
  GI50: > 100 µM (inactive)
SK-OV-3
  GI50: > 100 µM (inactive)
SW-620
  GI50: > 100 µM (inactive)
UO-31
  GI50: > 100 µM (inactive)
OVCAR-8
  GI50: > 100 µM (inactive)
COLO 205
  GI50: > 100 µM (inactive)
TK-10
  GI50: > 100 µM (inactive)
HOP-62
  GI50: > 100 µM (inactive)
K562
  GI50: 1.81 µM (inactive)
T47D
  GI50: > 100 µM (inactive)
KM12
  GI50: > 100 µM (inactive)
A549
  GI50: > 100 µM (inactive)
NCI-H460
  GI50: > 100 µM (inactive)
U-251
  GI50: > 100 µM (inactive)
HCT-116
  GI50: > 100 µM (inactive)
IGROV-1
  GI50: > 100 µM (inactive)
RXF 393
  GI50: 79.6 µM (inactive)
NCI/ADR-RES
  GI50: > 100 µM (inactive)
OVCAR-5
  GI50: > 100 µM (inactive)
